Values quoted from earlier work in patent publication US20060257347A1, “Self-preservation system” (priority 2005, published 2006).
Values after ≈ are worked out from the molar mass of the structure shown.

How the values were obtained:
Conditions in all cases: hinokitiol alone; known to be
[1] = tested on: Staphylococcus aureus (ATCC No. 6538)
[2] = tested on: Aspergillus niger (ATCC No. 16404)
[3] = tested on: Escherichia coli (ATCC No. 8739)
[4] = tested on: Candida albicans (ATCC No. 10231)
[5] = tested on: Pseudomonas aeruginosa (ATCC No. 9027)

MIC (Minimum Inhibitory Concentration) Staphylococcus aureus [1]: 40.0 mg/mL (≈ 244 mM)
MIC (Minimum Inhibitory Concentration) Aspergillus niger [2]: 40.0 mg/mL (≈ 244 mM)
MIC (Minimum Inhibitory Concentration) Escherichia coli [3]: 40.0 mg/mL (≈ 244 mM)
MIC (Minimum Inhibitory Concentration) Candida albicans [4]: 12.5 mg/mL (≈ 76.1 mM)
MIC (Minimum Inhibitory Concentration) Pseudomonas aeruginosa [5]: 50.0 mg/mL (≈ 304 mM)
Structure (SMILES): CC(C)c1cccc(=O)c(O)c1 [hinokitiol, Hinokitiol]
